Data reported in patent US12700475B2, “Systems and methods for dissecting heterogeneous cell populations” (California Institute of Technology, priority 2018, dated 2026).

How the values were obtained:
[1] = tested on: neural progenitor subpopulation from the ventricular zone (VZ); test: High-concentration additional signals on ventricular zone cells: neural progenitor subpopulation aligned to VZ-D0, differential genes by L1-norm; type: cell-based, mouse
Protocol: Having seen that these signals can control population structure, whether these additional signals induced major transcriptional changes in neural stem cells was determined. Further, whether any changes restored the functional defects observed in response to in vitro culture was determined. To learn these transcriptional changes, a new experiment was performed using high concentrations of signaling factors for two reasons: 1) the original combinatorial screen required the cells to be fixed in methanol, which may disrupt gene expression values thus making comparing that data directly to the in vivo data difficult and 2) the original combinatorial screen suffered from low sample number for some of the conditions, due to variation in proliferation rate. This new experiment was performed by adding high concentrations of additional signals (BMP4 (20 ng/mL), CHIR (3 uM), PDGF-AA (20 ng/mL) and DLL1 (surface-coated)) in addition to high concentrations of EGF/FGF immediately after dissociation of cells from the VZ, and all cells were grown for five days in these signal cocktails before profiling.
First, models were built for all of the new samples, aligned each to the VZ-D0 sample (which served as the control), and then only the subpopulations across all samples that aligned to the neural progenitor population were pulled out (FIG. 39B). By plotting the Jeffreys Divergence between these aligned populations (FIG. 39C), all the in vivo populations (E15, E18, and VZ-D0) were seen to be close to each other, while in vitro populations were very distant (VZ-D18 and ivNSC).
To confirm this possibility, the genes that were differentially expressed in the BMP4-, DLL-, PDGF-, and CHIR-containing cells were examined, and these genes were compared to the genes discovered in FIG. 36A-36I. […] By contrast, CHIR only rescued 3 of the lost genes, while DLL and PDGF had only one differentially regulated gene each (FIG. 39D).
Normally in development, these neural progenitors give rise to neurons that form six distinct layers in the cortex. These cortical layers have distinct functions, connectivity patterns, and gene expression patterns, which have been characterized in the literature. The gene expression patterns of these layer-specific genes were examined in neural progenitor populations aligned across all samples (FIGS. 39H-39I). Expression of these genes, while noisy, was very extensive in the in vivo populations, but that culture in vitro erased their expression.
Neuroprogenitors are dissociated from the combined cortex, hippocampus and ventricular zone of E18 mice (Brainbits). After dissociation and resuspension of the cells in NPgrow, cells were counted and plated onto ultra-low attachment 100 mm culture plates (Corning) at one million cells per plate in 10 mL of NPgrow supplemented with 1% Penicillin-Streptomycin. Cells were cultured at 37° C. and 5% CO2 and supplemented medium was changed every 3 to 4 days. In some experiments, subventricular zone (SVZ) stem cells were derived with supplemental factors during derivation. PDGF-AA and BMP4 (Peprotech) were used at […], and 20 ng/mL. CHIR99021 (Stem Cell) was used at 3 uM. DLL1 ligand was coated onto tissue culture plastic for one hour before plating cells.
For each gene, two empirical distributions P1(g), P2(g), one for each subpopulation, were determined. These distributions were discretized over identical histogram binnings, a, over the gene's entire range of expression, Ω. Then the L1 distance was defined as: d=sign(g2−g1)Σa∈Ω∥P1(a)−P2(a)∥1, where g1 and g2 denote the respective means of subpopulations 1 and 2. […] The L1 distance ranged from −2 to +2, both of which corresponded to completely non-overlapping distributions. Genes with L1 distances of high magnitude (≳0.5) always had distributions which, by eye, were in obvious agreement with the labeled directionality. […] Query.

[2] = tested on: neural stem cells / progenitor subpopulations from E18 mouse brain; test: Combinatorial signal screen on cells dissociated from the brain: LLR ranking, query, multinomial logistic regression of subpopulation abundances; type: cell-based; conditions: for log-likelihood ratio (LLR) score against control population: control 20 ng/mL EGF/FGF
Protocol: Next, whether and how signaling interventions can pre-emptively bias the transcriptional state of neural stem cells, potentially restoring lost functionality, were determined. Given the finding that transcriptional changes happened in less than three days after in vitro culture, signals were added immediately after dissociation from the brain. Signals known to be important in neural stem cell differentiation into astrocytes (BMP4), neurons (Wnt pathway through CHIR activation), or oligodendrocytes (PDGF-AA), were chosen. A combinatorial screen, in which these signals were added together with EGF/FGF at varying concentrations to dissociated cells from the brain, were performed. The cells were grown for 5 days before profiling. To profile all of these samples, a multiplexing approach, in which cells were methanol fixed and then covalently labeled with a separate exogenous DNA barcode for each experimental condition, was used. A total of 8691 cells were profiled across 19 conditions [See Methods—Experimental multiplexing using Clicktags in this example].
First, how the populations responded at a high-level were examined by using the PopAlign framework to build new models of populations, and the populations were ranked against a control population using a Log-likelihood ratio score (FIG. 38A). In this case, the control population was defined as the 20 ng/mL EGF/FGF condition, which is the concentration of growth factors normally used to propagate neural stem cells in culture. The log-likelihood ratio score is a single metric that measures the extent to which an entire population model diverges from a control population.
To investigate this more deeply, how the population structure of these progenitor cells responded to the signaling cues was determined. For this analysis the query function [See Methods—Query in this example] of the modeling framework was used to score all cells in each sample using a standard model built from the control population. For this combinatorial screen, some conditions suffered from poor sampling (roughly 100 cells vs. 1000 cells for most samples) due to variation in proliferation rates. Thus, querying all samples using the same model was more robust than building separate models (which can be of poor quality with severe undersampling). The first 3 principal components (PCs) were used as the feature vectors in order to improve the sampling within the gene expression space.
In this new analysis, the population were segmented into more fine-grained subpopulations (FIG. 38B). While there was a committed neuroblast population, the neural progenitor population now split into three subpopulations: (1) a proliferating progenitor (PP) population that actively expressed mitotic genes, (2) a non-proliferating progenitor population (NPP), as well as (3) a basal progenitor (BP) that only expressed the progenitor program (Prog), but not glial genes like ALDOC or SPARCL1. Using the control model, individual cells from each sample were scored and assigned into one of the four subpopulations, and abundances of each individual subpopulation across all experimental samples were (FIG. 38D).
To dissect how the abundances of these individual populations responded to signals, a multinomial logistic regression analysis was performed. Multinomial logistic regression models were used to determine the probability of each cell belonging to one of K mutually exclusive classes (in this case, the four subpopulations defined above) based on m independent predictor variables (in this case, the concentrations of each signal) [See Methods—Multinomial logistic regression in this example].
By examining the regression coefficients β, the relationship between each signal and how the signal regulates the proportions of each cell type can be determined. Importantly, the regression model only computed coefficients for K−1 of the outcome classes, while the K^th class was treated as a reference. […]

[3] = tested on: primary human peripheral blood mononuclear cells (PBMCs); test: PBMC signaling experiment: single-cell mRNA-seq with PopAlign alignment to the reference PBMC sample; type: cell-based; conditions: 1 ng/mL, 13 hours
Protocol: One non-limiting application of PopAlign is to study heterogeneous cell populations in the human body as they respond to environmental change, drug treatments, and disease. The human immune system is an extremely heterogeneous physiological system that is central for disease and cell engineering applications. As a test case, PopAlign was tested for its ability to identify subtype-specific signaling responses in a complex mixture of primary human immune cells. Thus, primary human peripheral blood mononuclear cells (PBMCs) (FIG. 17A) were treated with two lymphokines—granulocyte-macrophage colony-stimulating factor (GM-CSF) (FIG. 17C) and interferon-gamma (IFNG) (FIG. 17D) that are known to have a specific impact on monocytes (See Experimental Methods). […] In the reference PBMCs, five independent cell densities (FIG. 17A) were identified and classified using canonical markers from the literature (FIG. 17B). The signal treated cell-populations (FIGS. 17C-17D) were aligned to the PBMC data (FIG. 17A), finding that, for both signals, the monocyte populations (mixtures PBMC-1, PBMC-3) had the largest shifts in their average gene expression state (|Δμ|>0.04) (FIG. 17F). While T-cell abundances changed (numbers), their mean cell states (μ) had the lowest magnitude of gene expression shift. For immune cell experiments, the independent mixture components were classified as effector T cells (CD3+/CD57+), naive T-cells(CD3+/CD28+), erythrocytes (HBB+), canonical monocytes (CD14+/CD16low), and nonclassical monocytes(CD14low/CD16++) (FIG. 16E). Populations in the test samples—GM-CSF (FIG. 16B) and IFNG (FIG. 15C)—were aligned to the reference populations (control) by finding pairs of components that minimize the Jeffrey's divergence (FIG. 16D). Cryopreserved PBMCs sourced from Hemacare (~10 million cells, source ID: D23127, Lot: 17043194) were thawed in a 37° C. waterbath for 2 minutes after which the cells were transferred to a 15 mL conical tube. Prewarmed RPMI1640 was then added to the 15 mL conical to a final volume of 10 mL and centrifuged for 2 minutes at 300RCF to pellet the cells. Supernatant was removed and cells were resuspended in 10 mL of RPMI1640 supplemented with 10% FBS and 1% pen/strep. The cell suspension was then plated onto a 100 mm low attachment plate and placed in a CO2 incubator at 37° C. for 5 hours for the cells to recover. For each condition, 700,000 cells were aliquoted into a well of a 96 well plate. These cells were cultured for 13 hours under two different conditions: 1) IFN-γ@ 1 ng/mL, 2) GM-CSF 1 ng/mL, each with a single additional replicate. After incubation, the plate was sealed with an aluminum adhesive and centrifuged for 3 minutes at 300RCF. […]

Cc1c[nH]c(-c2cnc(NCCNc3ccc(C#N)cn3)nc2-c2ccc(Cl)cc2Cl)n1 [CHIR, CHIR99021, reference compound]
number of genes downregulated in ivNSCs that are re-induced (upregulated) by the signal ([1]; of 190 genes downregulated in ivNSCs vs E18 NProgs, 5 days with high EGF/FGF): 3 genes | log-likelihood ratio (LLR) score against control population ([2]; 5 days): lowest LLR score | odds ratio, proliferating progenitors (PP) vs non-proliferating progenitors (NPP) ([2]; per unit of signal (unit = maximum: EGF/FGF 20 ng/mL each, CHIR 3 uM), 5 days): 0.6

GM-CSF: lymphokine signal applied to PBMCs at 1 ng/mL
class of transcriptional (signaling) response of canonical and non-canonical monocytes [3]: additive | gene expression programs altered in monocytes [3]: activating a new gene expression program called Chemokine Secretion/Leukocyte Migration pathway

IFNG: lymphokine signal applied to PBMCs at 1 ng/mL
class of transcriptional (signaling) response of canonical and non-canonical monocytes [3]: convergent | gene expression programs altered in monocytes [3]: up-regulation of pathways involved in antigen presentation and phagocytosis

PDGF
number of differentially regulated genes ([1]; 5 days with high EGF/FGF): one | odds ratio, basal progenitors vs non-proliferating progenitors ([2]; per unit of signal (PDGF-AA 20 ng/mL), 5 days): 1.75

B1: BMP4: signaling factor (Peprotech) important in neural stem cell differentiation into astrocytes (protein, UniProt P12644 293-408, looked up)
Bone morphogenetic protein 4: SPKHHSQRARKKNKNCRRHSLYVDFSDVGWNDWIVAPPGYQAFYCHGDCPFPLADHLNSTNHAIVQTLVNSVNSSIPKACCVPTELSAISMLYLDEYDKVVLKNYQEMVVEGCGCR
rescue of expression of cortical layer-specific genes in neural progenitors ([1]; 5 days in culture): only signal that could rescue the expression of these genes | number of genes upregulated in ivNSCs that are suppressed by the signal ([1]; 5 days with high EGF/FGF): 22 genes | Jeffreys Divergence of aligned neural progenitor subpopulation to in vivo populations ([1]; compared to VZ-D5, VZ-D5-CHIR, VZ-D5-DLL, VZ-D5-PDGF): closest to the in vivo populations | committed neuroblasts (CN) proportion of the population ([2]; addition of BMP and low EGF/FGF): ~50% | log-likelihood ratio (LLR) score against control population ([2]; 5 days): lowest LLR score | odds ratio, committed neuroblasts vs non-proliferating progenitors ([2]; per unit of signal (BMP4 20 ng/mL), 5 days): 2.2

B2: DLL: DLL1 ligand, surface-coated onto tissue culture plastic (protein, UniProt O00548 18-723, looked up)
Delta-like protein 1: QVWSSGVFELKLQEFVNKKGLLGNRNCCRGGAGPPPCACRTFFRVCLKHYQASVSPEPPCTYGSAVTPVLGVDSFSLPDGGGADSAFSNPIRFPFGFTWPGTFSLIIEALHTDSPDDLATENPERLISRLATQRHLTVGEEWSQDLHSSGRTDLKYSYRFVCDEHYYGEGCSVFCRPRDDAFGHFTCGERGEKVCNPGWKGPYCTEPICLPGCDEQHGFCDKPGECKCRVGWQGRYCDECIRYPGCLHGTCQQPWQCNCQEGWGGLFCNQDLNYCTHHKPCKNGATCTNTGQGSYTCSCRPGYTGATCELGIDECDPSPCKNGGSCTDLENSYSCTCPPGFYGKICELSAMTCADGPCFNGGRCSDSPDGGYSCRCPVGYSGFNCEKKIDYCSSSPCSNGAKCVDLGDAYLCRCQAGFSGRHCDDNVDDCASSPCANGGTCRDGVNDFSCTCPPGYTGRNCSAPVSRCEHAPCHNGATCHERGHRYVCECARGYGGPNCQFLLPELPPGPAVVDLTEKLEGQGGPFPWVAVCAGVILVLMLLLGCAAVVVCVRLRLQKHRPPADPCRGETETMNNLANCQREKDISVSIIGATQIKNTNKKADFHGDHSADKNGFKARYPAVDYNLVQDLKGDDTAVRDAHSKRDTKCQPQGSSGEEKGTPTTLRGGEASERKRPDSGCSTSKDTKYQSVYVISEEKDECVIATEV
modifications: surface-coated
notes: DLL1 ligand, surface-coated onto tissue culture plastic
number of differentially regulated genes ([1]; 5 days with high EGF/FGF): one
